According to patent US11466020B2, “Compounds and compositions for inhibition and elimination of Zika infection and uses for same” (Cornell University, priority 2017, dated 2022):
Entries after “also recorded” stand apart in the source; their conditions may differ. Where a name gives a salt, the structure may show the parent alone.

Legend:
[1] = test system: ZIKV (MR766 strain); test: ZIKV infection of human forebrain organoids (MR766); format: cell-based, Zika virus
Procedure: (A) Experimental design for evaluating the therapeutic efficacy and safety of HH using forebrain organoids. D20 or D40 Forebrain organoids were exposed to ZIKV (5×10^5 PFU/ml) or mock-treated for 24 h. After removal of ZIKV-containing medium, fresh virus-free medium plus compounds were added. Organoids were analyzed at day 4 (D20+4) or day 18 (D20+18) after initial ZIKV infection. (B and C) HH eliminates ZIKV infection in short-term cultures. Immunocytochemistry analysis (B) and the quantification of infection rate (C) of mock, DMSO or 25 μM HH treated ZIKV-infected D20 organoids (n=3). Scale bars, 100 μm. D20+4 organoids mainly consist of SOX2^+ progenitors and are highly infiltrated by ZIKV. […] (D) qRT-PCR analysis of total ZIKV vRNA in the supernatant of DMSO or 25 μM HH treated ZIKV-infected D20 and D40 organoids (n=3). (E) HH rescues ZIKV-related proliferation and apoptosis defects in D20+4 organoids. The number of proliferating cells (Ki67^+) is decreased and the number of apoptotic cells (CAS^+) is increased in ZIKV-infected organoids compared to mock and 25 μM HH treated organoids (n=3). Scale bars, 100 μm. […] Scale bars, 50 μm. […] Quantifications show average organoid perimeter of D20+18 organoids (H). Values represent mean±SEM (n=3). Scale bars, 1 mm. (I) HH rescues ZIKV-induced structural defects in forebrain organoids. Mock treated organoids contain clearly defined progenitor (SOX2) and neuronal (TUJ1) zones. Neurons migrate out of progenitor zones and settle at the edge of the organoid, while progenitor zones occupy more interior regions of the organoid. In contrast, D20+18 ZIVK infected organoids lack clearly defined progenitor and neuronal zones, which appear to intermix. Both neuron and progenitor zones appear to settle at the edge of the organoid. HH rescues the well-delineated structure of forebrain organoids (n=3). Scale bars, 100 μm. p values were calculated by unpaired two-tailed Student's t-test. *p<0.05, **p<0.01 and ***p<0.001.
D20 forebrain organoids were inoculated with ZIKV (MR766 strain) for 24 h, followed by treatment with 15 μM AQ or 25 μM HH for 3 days (D20+4, short-term) or 17 days (D20+18, long-term). Organoids were analyzed for ZIKV infection, cell proliferation, and apoptosis (FIG. 3A).
Generation and culture of human forebrain organoids. To induce forebrain organoid differentiation, H9 hESC line (WA-09, WiCell) hPSCs were dissociated to single cells using EDTA, and 9000 cells were reaggregated using low-adhesion V-bottom 96 well plates (Wako) in Essential8 Medium (Fisher Scientific) with 10 μM Y-27632 (Tocris Biosciences). After 24 h (day 0), medium was changed to Essential6 (Fischer Scientific) supplemented with 10 μM SB431542 (Tocris Biosciences), 500 nM LDN193189 (Stem Cell Technologies), and 2 μM XAV939 (Tocris Biosciences) until day 4. […]

[2] = biological target: histamine-N-methyltransferase (Homo sapiens, UniProt P50135); conditions: Horton et al. 2005; cited from earlier work
[3] = test system: ZIKV (MR766 strain); test: qRT-PCR of total and (-) strand vRNA in hNPCs treated 24-48 h post-infection (MR766); format: cell-based, Zika virus
Procedure: To further evaluate the therapeutic potential of HH, qRT-PCR analysis was performed to monitor the dynamics of ZIKV vRNA expression (MR766 strain) in hNPCs. Both total and replicating (−) strand of ZIKV vRNAs could be detected at 24 h post-infection, and the vRNA level kept increasing at 36 h and 48 h post-infection (FIG. 2J). […] In addition, to determine the effect of HH on hNPCs derived from different donors, 25 μM HH or DMSO control was added to the hNPCs derived from either of two additional donors at 24 h post-infection. […] Moreover, we evaluated the dynamics of ZIKV vRNA expression (FSS13025 strain) in hNPCs.
To monitor ZIKV dynamics in hNPCs, hNPCs were infected with ZIKV (MR766 strain, MOI=0.125, FSS13025 strain MOI=0.1) for 2 h, and changed to virus-free medium. The cells were maintained in NPC medium with daily medium change. The cells were lysed at the different time points and analyzed using qRT-PCR.
RNA Extraction and qRT-PCR. Total RNA of cultured cells and organs was extracted with RNeasy plus mini kit (Qiagen). vRNA from cell culture supernatant or mouse serum was extracted with QIAampe viral RNA mini kit (Qiagen). […] ZIKV vRNA levels were calculated using a standard curve generated using serial 10-fold dilutions of ZIKV vRNA.

Sequence of histamine-N-methyltransferase (P50135 whole entry, species assumed): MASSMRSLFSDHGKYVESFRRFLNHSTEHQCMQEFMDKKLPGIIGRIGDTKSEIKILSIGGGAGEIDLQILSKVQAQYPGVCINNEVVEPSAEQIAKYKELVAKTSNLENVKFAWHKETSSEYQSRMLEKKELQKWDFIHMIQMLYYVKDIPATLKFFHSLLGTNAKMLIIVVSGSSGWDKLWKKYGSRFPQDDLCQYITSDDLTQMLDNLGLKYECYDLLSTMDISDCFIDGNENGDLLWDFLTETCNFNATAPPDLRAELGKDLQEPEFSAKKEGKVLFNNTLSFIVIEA

Row | SMILES | ZIKV infection in D20 organoids ([1]; 15 μM AQ, D20+4, dihydrochloride dihydrate) | inhibition of histamine-N-methyltransferase [2] | total and replicating (-) ZIKV vRNA levels in hNPCs ([3]; 25 μM added at 24 h, 36 h or 48 h post-infection, additional 3 days) | total and replicating (-) strand ZIKV vRNAs in hNPCs from two additional donors ([3]; 25 μM added at 24 h post-infection) | total ZIKV vRNA level in supernatant from D20+4 organoids ([1]; 25 μM HH) | ZIKV infection rate in D20+4 forebrain organoids ([1]; 25 μM HH, 3 day treatment, hydrobromide) | ZIKV infection in D20+18 organoids (long-term) ([1]; HH treated, 18 days after infection, hydrobromide)
1 | CCN(CC)Cc1cc(Nc2ccnc3cc(Cl)ccc23)ccc1O [AQ, amodiaquine dihydrochloride dihydrate] | suppresses ZIKV infection; also recorded: reduces ZIKV infection | potent inhibitor | – | – | – | – | –
2 | CN1CCC2=C[C@H](O)[C@H]3OC(=O)c4cc5c(cc4[C@H]3[C@@H]21)OCO5 [HH, hippeastrine hydrobromide] | – | – | successfully suppressed | consistently suppressed | suppresses total ZIKV vRNA level | undetectable levels; also recorded: below the detection limit | devoid of any detectable ZIKV; also recorded: suppressed any detectable ZIKV infection
